From US5049372A, “Anticancer activities in a host by increasing blood and plasma adenosine 5'-triphosphate (ATP) levels” (priority 1988, dated 1991)
Entries after “also recorded” stand apart in the source; their conditions may differ.

What was measured:
CT26 tumors = assay: Growth inhibition of s.c. footpad CT26 tumors in CB6F1 mice by daily i.p. adenine nucleotides (Table 1); assay type: in vivo, mouse; details: for Effectiveness of concentrations lower than 50 mM against CT26 footpad tumors: daily i.p. in volumes of 1.4-1.8 ml of saline, CB6F1 mice; for Effect of delaying start of treatment on tumor growth inhibition: start delayed until tumors palpable (6-10 days after inoculation); for Inhibition of tumor growth (% of saline-treated): 1 ml of 25 mM, based on tumor weights
Procedure: The tumor cell lines employed were CT26, a mouse undifferentiated, aggressive colon carcinoma, and CAPAN-1, a well-differentiated human pancreatic adenocarcinoma. […] The cells are shown to be free of Mycoplasma contamination. Cells are cultured at 37° C. in a humidified atmosphere of 5% CO2 /95% air in MEM supplemented with antibiotics (100 units of penicillin per ml and 100 μg streptomycin per ml), L-glutamine (2 mM), non-essential amino acids (0.1 mM), sodium pyruvate (1 mM), and 10% fetal bovine serum.
In the tests, females and males CB6F1 mice (a standard F1 hybrid of BALB/C and C57BL/6) obtained from Jackson Laboratories, Bar Harbor, Maine and athymic outbred NCr nu/nu mice (males and females) from the Department of Radiation Medicine, Massachusetts General Hospital, Boston, Mass. 02114 are used. All the mice are kept for at least two weeks before inoculation of the tumors and the start of treatment and are 7-9 weeks old (CB6F1) or 6-7 weeks old (athymic nu/nu) at the start of the procedure. Animals weigh 20-25 g (females) or 23-28 g (males), are housed 5-12 per cage, and have ad libitum access to food and water.
(§1) Tumor cells are removed from subconfluent cultures by a mild trypsin-EDTA treatment, the cell pellet is washed once with MEM without serum and the cells are suspended at the desired cell numbers in PBS (phosphate-bufferedsaline, 8 g NaCl, 0.2 g KCl, 1.15 g Na2 HPO4.7H2 O, and 0.2 g KH2 PO4 per liter). Cell suspensions are shown to be at least 90% viable by trypan blue exclusion. Mice are injected subcutaneously in the right hind footpad with tumor cells suspended in 50 μl of PBS. The regular protocol (unless otherwise stated) consists of daily i.p. injections of 1 ml of 0.85% NaCl solution or 1 ml of 50 mM of AMP, ADP, or ATP in 0.85% NaCl (from stock solutions adjusted to pH 6.2) starting one day after tumor inoculation and given for ten consecutive days.
(§2) Injections are administered with 30 gauge needles and the mice are lightly anesthetized with ether. The mice are weighed before the start of treatment and once a week during and after treatment. After the tumors become palpable, tumor sizes are determined every three days. The animals are sacrificed, tumors are excised and weighed before they reach 10% of the animals' weight.
The growth inhibitory properties of adenine nucleotides against CT26 murine colon carcinoma, which are inoculated s.c. in the hind footpad of CB6F1 mice, are illustrated in Table 1 hereinbelow. […] No significant differences between males and females are observed either in the rate of tumor growth or in the tumor's response to adenine nucleotides treatment.

RBC ATP pools [1] = assay: Expansion of RBC ATP pools and blood plasma ATP levels after i.p. injection (Table 4); assay type: in vivo, mouse; details: for Plasma ATP levels / RBC ATP pools / Plasma [^3 ]ATP levels immediately after [^3 H]adenosine incorporation into whole blood: 5 hours after i.p. injection of 2 ml of 35 mM, CB6F1; for Plasma ATP levels / RBC ATP pools: bioluminometry, citrate-dextrose; for Plasma [^3 ]ATP levels immediately after [^3 H]adenosine incorporation into whole blood: radioactivity corrected by RBC specific radioactivity; for Duration of expansion of RBC ATP pools: after complete adsorption across the peritoneal membrane; for Time at which expansion of RBC ATP pools could be detected: after i.p. injection; for Increase in plasma (extracellular) ATP levels (in words): i.p. administration; for Expansion of RBC ATP pools (in words): i.p. injection, host animals
Procedure: The mice are anesthetized with ether during the procedure. Plasma or Hanks' (Balanced Salt Solution) BSS media from incubated isolated RBCs (Red Blood Cells) are prepared by centrifugation of whole blood or RBCs in a Beckman microfuge (30 seconds at 8000 xg) and samples of 100 μl are added to 1 ml of ice-cold 7% trichloroacetic acid. Red blood cells are prepared by centrifugation of whole blood (1500 xg for 5 minutes at 4° C.) and removal of plasma and the buffy coat is followed by a wash of the pelleted RBCs (from 250 μl of whole blood) in 5 ml of ice-cold Hanks' BSS. After centrifugations, the RBCs pellet is resuspended in Hanks' BSS to yield a total volume with the original hematocrit (percent of RBCs volume in the whole blood). Aliquots of 20 μl of RBCs suspensions or whole blood are added to 1 ml of ice-cold 7% trichloroacetic acid. Extraction of acid-soluble nucleotides and determinations of ATP levels by luminometry followed procedures discussed hereinabove. Levels of [^3 H]ATP in whole blood, RBCs, plasma, or RBCs incubation media (Hanks' BSS) are determined after incorporation of 250 μCi of [^3 H]adenosine of specific radioactivity of 30 Ci/mmol (1 Ci=3.7×10^10 becquerels) into whole blood or RBC suspensions (250 μl total) followed by immediate trichloroacetic acid extractions as described above. Two dimensional thin layer chromatography on poly(ethylene)imine cellulose with an unlabeled ATP carrier is performed according to Bochner and Ames, J. Biol. Chem., 257, pp. 9759-9769, 1982). For the determination of whole blood or isolated RBC [^3 H]ATP pools, 10 μl of a 1 ml initial trichloroacetic acid extract are chromatographed. Determinations of [^3 H]ATP levels in blood plasma or RBCs incubation media are performed on 300 μl of an initial 1 ml trichloroacetic acid extract which are lyophilized and redissolved in 15 μl of water. After chromatography, the spots corresponding to the ATP carrier are cut, eluted with 0.5 ml of 4 N ammonium hydroxide, and radioactivity determined in 10 ml of scintillation fluid.
Single intraperitoneal injections of 2 ml of 35 mM of AMP or ATP in saline at pH 6.2 into CB6F1 mice result in expansions of RBC ATP pools in these mice (see Table 4).
The expansions of RBC ATP pools after i.p. injections of AMP or ATP could be detected 30 minutes after injections and lasted for approximately 6-8 hours after the nucleotides were completely adsorbed across the peritoneal membrane and into the systemic circulation. The rates of adsorption of intraperitoneal AMP or ATP solutions varied in different strains of mice. […] These plasma ATP levels originate in RBCs since they can be metabolically labeled by [^3 H]adenosine. Plasma ATP pools which originate in the dense granules of blood platelets would not be radioactively labeled under the same conditions (e.g., Holmsen, 1985, Seminars in Hematol, 22, 219-240). The experiments described in Tables 4 and 5 include uptake of [^3 H]adenosine by whole blood (Table 4) or isolated washed RBCs (Table 5 below). In both cases, all the extracellular ATP, determined seconds after the uptake of [^3 H]adenosine, is metabolically labeled.

RBC ATP pools [2] = assay: RBC ATP pools after in vitro incubation of whole mouse blood with 1 mM compound (Table 6); assay type: cell-based; details: for RBC ATP pools (after 30 min incubations in heparinized mouse blood): 1 mM compound, bioluminometry
Procedure: ^+ RBC ATP pools were determined in isolated washed RBCs after
incubations of whole blood with 1 mM of the specified compound by
bioluminometry. Data represent means ± S.D. of three separate

[3] = Host toxicity (deaths, body weight) in treated mice; assay type: in vivo, mouse; details: for Deaths: i.p. injections of adenine nucleotides
Procedure: as §1, §2

[4] = experiment 3, 12 M per group, 0.5 × 10^6 cells, day 13, 1 ml of 50 mM i.p. daily
[5] = experiment 4, 11 F per group, 0.5 × 10^6 cells, day 14, 1 ml of 50 mM i.p. daily
[6] = experiment 5, 12 F per group, 0.5 × 10^5 cells, day 16, 1 ml of 50 mM i.p. daily
[7] = experiment 6, 10 F per group, 0.5 × 10^5 cells, day 18, 1 ml of 50 mM i.p. daily (Ap4A 10 mM)
[8] = experiment 7, 10 F per group, 0.1 × 10^5 cells, day 22, 1 ml of 50 mM i.p. daily
[9] = experiment 7, 10 F per group, 0.1 × 10^5 cells, day 22, 1 ml of 50 mM i.p. daily, included one complete cure
[10] = experiment 1, 10 F per group, 0.5 × 10^6 cells, day 15, 1 ml of 25 mM i.p. daily
[11] = experiment 2, 10 M per group, 0.5 × 10^6 cells, day 15, 1 ml of 25 mM i.p. daily

| SMILES | Effectiveness of concentrations lower than 50 mM against CT26 footpad tumors (CT26 tumors) | Tumor diameter (CT26 tumors; [4]) [cm] | Tumor weight (CT26 tumors; [4]) [g] | Tumor diameter (CT26 tumors; [5]) [cm] | Tumor weight (CT26 tumors; [5]) [g] | Tumor diameter (CT26 tumors; [6]) [cm] | Tumor weight (CT26 tumors; [6]) [g] | Tumor diameter (CT26 tumors; [7]) [cm] | Tumor weight (CT26 tumors; [7]) [g] | Tumor diameter (CT26 tumors; [8]) [cm] | Tumor weight (CT26 tumors; [9]) [g] | Most effective pH of the i.p. solution for inhibition of tumor growth (CT26 tumors) | Effect of delaying start of treatment on tumor growth inhibition (CT26 tumors) | Plasma ATP levels (RBC ATP pools [1]) [µM] | RBC ATP pools (RBC ATP pools [1]) [mM] | Plasma [^3 ]ATP levels immediately after [^3 H]adenosine incorporation into whole blood (RBC ATP pools [1]) [µM] | Duration of expansion of RBC ATP pools (RBC ATP pools [1]) [h] | Time at which expansion of RBC ATP pools could be detected (RBC ATP pools [1]) [min] | Increase in plasma (extracellular) ATP levels (in words) (RBC ATP pools [1]) | Expansion of RBC ATP pools (in words) (RBC ATP pools [1]) | also measured |
| --- | --- | --- | --- | --- | --- | --- | --- | --- | --- | --- | --- | --- | --- | --- | --- | --- | --- | --- | --- | --- | --- |
| Nc1ncnc2c1ncn2[C@@H]1O[C@H](COP(=O)(O)O)[C@@H](O)[C@H]1O [AMP, adenosine 5'-monophosphate] | as effective | 1.2 ± 0.2 | 0.65 ± 0.21 | 1.0 ± 0.3 | 0.88 ± 0.31 | 0.6 ± 0.2 | 0.41 ± 0.18 | 0.8 ± 0.2 | 0.56 ± 0.21 | 0.9 ± 0.5 | 0.51 ± 0.28 | 5.5-6.2 | without any significant effects on the magnitude of tumor growth inhibition | 3.10 ± 0.96 | 1.78 ± 0.32 | 2.86 ± 1.06 | 6 to 8 | 30 | markedly increased; also recorded: several fold increases in plasma (extracellular) ATP levels | yielded expansions of red blood cell (RBC) ATP pools | Increase in RBC ATP pools after in vitro treatment of whole mouse blood (in words) (RBC ATP pools [2]): marginal increases in RBC ATP pools; RBC ATP pools (after 30 min incubations in heparinized mouse blood) (RBC ATP pools [2]): 0.73 ± 0.10 µM; Side-effects relative to ATP ([3]; host animals): less side-effects than ATP; Deaths [3]: did not cause any deaths |
| Nc1ncnc2c1ncn2[C@@H]1O[C@H](COP(=O)(O)OP(=O)(O)OP(=O)(O)O)[C@@H](O)[C@H]1O [ATP, adenosine 5'-triphosphate] | as effective | 1.2 ± 0.2 | 0.70 ± 0.18 | 1.0 ± 0.2 | 0.84 ± 0.23 | 0.5 ± 0.1 | 0.38 ± 0.10 | 0.8 ± 0.1 | 0.51 ± 0.18 | 0.9 ± 0.5 | 0.68 ± 0.36 | 5.5-6.2 | without any significant effects on the magnitude of tumor growth inhibition | 4.94 ± 1.17 | 2.49 ± 0.42 | 5.75 ± 2.05 | 6 to 8 | 30 | markedly increased; also recorded: several fold increases in plasma (extracellular) ATP levels | yielded expansions of red blood cell (RBC) ATP pools | Tumor diameter (CT26 tumors; [10]): 1.3 ± 0.2 cm; Tumor weight (CT26 tumors; [10]): 1.34 ± 0.33 g; Inhibition of tumor growth (% of saline-treated) (CT26 tumors; experiment 1, 10 F per group, 0.5 × 10^6 cells, day 15): 31%; Tumor diameter (CT26 tumors; [11]): 1.4 ± 0.2 cm; Tumor weight (CT26 tumors; [11]): 1.30 ± 0.29 g; Inhibition of tumor growth (% of saline-treated) (CT26 tumors; experiment 2, 10 M per group, 0.5 × 10^6 cells, day 15): 30%; Increase in RBC ATP pools after in vitro treatment of whole mouse blood (in words) (RBC ATP pools [2]): marginal increases in RBC ATP pools; RBC ATP pools (after 30 min incubations in heparinized mouse blood) (RBC ATP pools [2]): 0.76 ± 0.05 µM; Deaths [3]: Occasionally, an animal treated with ATP or ADP would die a few hours after injection |
